# Laboratory results as given in US20240279220A1, “INDOLE COMPOUNDS AND METHODS OF USE” (Genzyme Corporation, priority 2021, published 2024).
# Tests used:
# CFTR = molecular target: T1, CFTR (Homo sapiens, UniProt P13569, DEL508-508); experiment: TECC24 recording of CFTR-mediated transepithelial chloride transport in ΔF508 homozygous CF-HBE cells; format: cell-based; details: 10 μM test agent, 48 hours incubation, AUC of forskolin-stimulated IEQ divided by vehicle AUC, primary CF-HBE cells
# T1 construct: Primary human bronchial epithelial cells from a ΔF508 homozygous CF donor; host or cells: primary human bronchial epithelial cells (CF-HBE), ΔF508 homozygous donor
# T1 sequence (P13569 with tags, fused parts or gaps DEL508-508): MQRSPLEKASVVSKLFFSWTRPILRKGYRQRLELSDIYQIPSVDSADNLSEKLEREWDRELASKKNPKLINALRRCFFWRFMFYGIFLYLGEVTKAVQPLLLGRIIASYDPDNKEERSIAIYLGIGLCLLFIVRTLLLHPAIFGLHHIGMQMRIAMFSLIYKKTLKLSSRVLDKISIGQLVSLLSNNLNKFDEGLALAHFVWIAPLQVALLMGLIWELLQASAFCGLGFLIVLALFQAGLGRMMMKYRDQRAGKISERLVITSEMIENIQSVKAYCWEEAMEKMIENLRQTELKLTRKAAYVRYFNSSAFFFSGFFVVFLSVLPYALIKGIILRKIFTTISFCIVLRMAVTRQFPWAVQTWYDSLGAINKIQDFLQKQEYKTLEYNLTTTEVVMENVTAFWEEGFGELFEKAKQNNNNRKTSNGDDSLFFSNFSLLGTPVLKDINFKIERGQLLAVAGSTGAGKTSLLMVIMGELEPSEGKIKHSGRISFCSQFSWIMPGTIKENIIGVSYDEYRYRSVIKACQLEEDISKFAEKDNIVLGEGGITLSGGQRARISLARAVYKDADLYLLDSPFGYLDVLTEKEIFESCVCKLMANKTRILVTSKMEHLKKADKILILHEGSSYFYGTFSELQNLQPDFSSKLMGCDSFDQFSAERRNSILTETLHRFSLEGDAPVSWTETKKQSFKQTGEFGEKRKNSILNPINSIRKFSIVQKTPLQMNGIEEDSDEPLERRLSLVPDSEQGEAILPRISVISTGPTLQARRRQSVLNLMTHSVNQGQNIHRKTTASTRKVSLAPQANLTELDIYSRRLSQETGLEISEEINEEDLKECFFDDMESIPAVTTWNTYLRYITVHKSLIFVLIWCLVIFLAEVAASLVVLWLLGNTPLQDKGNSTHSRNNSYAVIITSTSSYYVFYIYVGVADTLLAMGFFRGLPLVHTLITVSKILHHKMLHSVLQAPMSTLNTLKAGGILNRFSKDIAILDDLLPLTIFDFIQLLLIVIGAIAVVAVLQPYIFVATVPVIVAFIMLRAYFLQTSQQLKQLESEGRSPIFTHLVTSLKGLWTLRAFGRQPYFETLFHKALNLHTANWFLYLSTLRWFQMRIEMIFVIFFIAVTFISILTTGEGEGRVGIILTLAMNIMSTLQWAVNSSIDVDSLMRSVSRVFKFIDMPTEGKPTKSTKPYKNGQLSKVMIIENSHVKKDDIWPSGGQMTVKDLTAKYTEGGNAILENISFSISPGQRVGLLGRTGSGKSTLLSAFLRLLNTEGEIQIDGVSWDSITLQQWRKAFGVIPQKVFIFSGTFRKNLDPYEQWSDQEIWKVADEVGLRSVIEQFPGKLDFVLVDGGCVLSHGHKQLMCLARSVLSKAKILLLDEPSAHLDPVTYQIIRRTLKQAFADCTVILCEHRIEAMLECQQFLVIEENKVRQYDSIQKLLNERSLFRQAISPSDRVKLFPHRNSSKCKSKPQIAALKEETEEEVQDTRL
# Outline: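 ΔF508 homozygous primary bronchial epithelia exposed to compound 48 h at 36.5 °C, then transepithelial voltage and resistance recorded in pH 7.4 buffer with benzamil (10 μM), forskolin (10 μM) stimulation and CFTRinh-172 (20 μM) stop. Equivalent Cl⁻ current AUC vs vehicle gives efficacy; EC50 fitted with Hill slope fixed at 1.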
# NBD1/3D = experiment: Aggregation analysis using differential static light scattering (DSLS), NBD1 thermal stability; format: binding, Human; details: ΔTagg versus DMSO control; compound at 100 μM
# Outline: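 Purified NBD1 at 0.2 mg/ml in S200 buffer (pH 7.6, 2 mM ATP, 5 mM MgCl2, 1% glycerol) was heated with compound at 1 °C/min to 70 °C. Tagg taken from the light-scattering curve inflection point; ΔTagg = compound Tagg minus mean DMSO control Tagg.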
SMILES,TECC24 @ 10 μM over DMSO (AUC fold over DMSO) (CFTR),DSLS NBD1/3D Human Stability delta-T (° C.) @ 100 (μM) (NBD1/3D)
"O=C(O)CCc1cccc(Cc2c[nH]c(-c3cc(Oc4c(F)cc5c(ccn5P(=O)(O)O)c4F)ccc3F)n2)c1F [Example 270, 3-(3-((2-(5-((4,6-Difluoro-1-phosphono-1H-indol-5-yl)oxy)-2-fluorophenyl)-1H-imidazol-4-yl)methyl)-2-fluorophenyl)propanoic acid]",C (“C” refers to AUC @ 10 uM <= 4),C (C: ≤5° C.)
"Cc1c(Oc2ccc(F)c(-c3ncc(C(C)(O)c4cccc(CCC(=O)O)n4)[nH]3)c2)c(F)cc2[nH]ccc12 (centres unmarked) [Example 272, 3-(6-(1-(2-(2-fluoro-5-((6-fluoro-4-methyl-1H-indol-5-yl)oxy)phenyl)-1H-imidazol-5-yl)-1-hydroxyethyl)pyridin-2-yl)propanoic acid]",B (“B” refers to AUC @10 uM between 4-12),B (B: 5-10° C.)
"O=C(O)CCc1cccc(C(O)(c2cnc(-c3cc(Oc4c(F)cc5[nH]ccc5c4F)ccc3F)[nH]2)C(F)(F)F)c1 (centres unmarked) [Example 273, 3-(3-(1-(2-(5-((4,6-difluoro-1H-indol-5-yl)oxy)-2-fluorophenyl)-1H-imidazol-5-yl)-2,2,2-trifluoro-1-hydroxyethyl)phenyl)propanoic acid]",C (“C” refers to AUC @ 10 uM <= 4),B (B: 5-10° C.)
"CC(c1cccc(CCC(=O)O)c1)(c1cnc(-c2cc(Oc3c(F)cc4[nH]ccc4c3S(C)(=O)=O)ccc2F)[nH]1)C(F)F (centres unmarked) [Example 276, 3-(3-(1,1-Difluoro-2-(2-(2-fluoro-5-((6-fluoro-4-(methylsulfonyl)-1H-indol-5-yl)oxy)phenyl)-1H-imidazol-5-yl)propan-2-yl)phenyl)propanoic acid]",C (“C” refers to AUC @ 10 uM <= 4),A (A: T ≥ 10° C.)
"CC(C)(C)C(c1cccc(CCC(=O)O)c1)c1cnc(-c2cc(Oc3c(F)cc4[nH]ccc4c3F)ccc2F)[nH]1 (centres unmarked) [Example 277, 3-(3-(1-(2-(5-((4,6-difluoro-1H-indol-5-yl)oxy)-2-fluorophenyl)-1H-imidazol-5-yl)-2,2-dimethylpropyl)phenyl)propanoic acid]",A (“A” refers to AUC @10 uM >= 12),B (B: 5-10° C.)
"CS(=O)(=O)Cc1c(Oc2ccc(F)c(-c3ncc(Cc4cccc(CCC(=O)O)c4F)[nH]3)c2)c(F)cc2[nH]ccc12 [Example 279, 3-(2-Fluoro-3-((2-(2-fluoro-5-((6-fluoro-4-((methylsulfonyl)methyl)-1H-indol-5-yl)oxy)phenyl)-1H-imidazol-5-yl)methyl)phenyl)propanoic acid]",A (“A” refers to AUC @10 uM >= 12),A (A: T ≥ 10° C.)
"CC(C)(O)c1nc(-c2cc(Oc3c(F)cc4[nH]ccc4c3F)ccc2F)[nH]c1Cc1cccc(CCC(=O)O)c1F [Example 280, 3-(3-((2-(5-((4,6-Difluoro-1H-indol-5-yl)oxy)-2-fluorophenyl)-4-(2-hydroxypropan-2-yl)-1H-imidazol-5-yl)methyl)-2-fluorophenyl)propanoic acid]",A (“A” refers to AUC @10 uM >= 12),B (B: 5-10° C.)
